{"source": "patent US20090005435A1", "about": "“Novel Compounds, Pharmaceutical Compositions Containing Same, and Methods of Use for Same” (priority 2004, published 2009)", "type_in_all_cases": "cell-based", "key": {"[1]": {"system": "Escherichia coli (ATCC #25922)", "test": "Broth microdilution MIC, E. coli", "experimental": "(§1) A broth microdilution assay is used to assess the antimicrobial activity of the compounds. Compounds are tested at twofold serial dilutions, and the concentration that inhibits visible growth (OD600 at 10% of control) is defined as the MIC. Microorganisms tested include Staphylococcus aureus (ATCC #29213), Enterococcus faecalis (ATCC #29212), Pseudomonas aeruginosa (ATCC #27853), and Escherichia coli (ATCC #25922). The assay is performed in two growth media, Mueller Hinton Broth and Trypticase Soy Broth.\n(§2) A blood (Tsoy/5% sheep blood) agar plate is inoculated from frozen stocks maintained in T soy broth containing 10% glycerol and incubated overnight at 37° C. Colonies are suspended in sterile broth so that the turbidity matches the turbidity of a 0.5 McFarland standard. The inoculum is diluted 1:10 in sterile broth (Mueller Hinton or Trypticase soy) and 195 ul is dispensed per well of a 96-well plate. […]\n(§3) After 24 hours of incubation at 37° C., plates are read at OD600 on a Molecular Devices SpectraMax Plus Spectrophotometer. Average OD600 values are computed using SOFTmax Pro Software (Molecular Devices) and MIC values are determined by linear regression analysis using Prism version 3.02 (Graph Pad Software, San Diego). […]"}, "[2]": {"system": "Enterococcus faecalis (ATCC #29212)", "test": "Broth microdilution MIC, E. faecalis", "experimental": "as §1, §2, §3"}, "[3]": {"system": "fatty acid synthesis in MCF-7 human breast cancer cells", "test": "[14C]acetate incorporation into total lipids", "conditions": "MCF-7 cells", "experimental": "Measurement of [^14C]acetate Incorporation into Total Lipids and Determination of IC50 of Compounds\nThis assay measures the incorporation of [^14C]acetate into total lipids and is a measure of fatty acid synthesis pathway activity in vitro. It is utilized to measure inhibition of fatty acid synthesis in vitro.\nMCF-7 human breast cancer cells cultured as above, are plated at 5×10^4 cells per well in 24-well plates. Following overnight incubation, the compounds to be tested, solubilized in DMSO, are added at 5, 10, and 20 μg/ml in triplicate, with lower concentrations tested if necessary. DMSO is added to triplicate wells for a vehicle control. C75 is run at 5 and 10 μg/ml in triplicate as positive controls. After 4 hours of incubation, 0.25 μCi of [^14C]acetate (10 μl volume) is added to each well.\nAfter 2 hours of additional incubation, medium is aspirated from the wells and 800 μl of chloroform:methanol (2:1) and 700 μl of 4 mM MgCl2 is added to each well. Contents of each well are transferred to 1.5 Eppendorf tubes, and spun at full-speed for 2 minutes in a high-speed Eppendorf Microcentrifuge 5415D. After removal of the aqueous (upper) layer, an additional 700 μl of chloroform:methanol (2:1) and 500 μl of 4 mM MgCl2 are added to each tube and then centrifuged for 1 minutes as above. […] Once dried, 3 ml of scintillant (APB #NBC5104) is added and vials are counted for ^14C. […]"}, "[4]": {"system": "MCF-7 human breast cancer cells", "test": "Crystal violet cell growth assay", "conditions": "MCF7, MCF-7 cells, read-out: Cr. Violet (IC50)", "experimental": "Crystal Violet Cell Growth Assay\nThe crystal violet assay measure cell growth but not cytotoxicity. This assay employs crystal violet staining of fixed cells in 96-well plates with subsequent solubilization and measurement of OD490 on a spectrophotometer. The OD490 corresponds to cell growth per unit time measured. Cells are treated with the compounds of interest or vehicle controls and IC50 for each compound is computed.\nTo measure the cytotoxicity of specific compounds against cancer cells, 5×10^4 MCF-7 human breast cancer cells, obtained from the American Type Culture Collection are plated per well in 24 well plates in DMEM medium with 10% fetal bovine serum, penicillin, and streptomycin. Following overnight culture at 37° C. and 5% CO2, the compounds to be tested, dissolved in DMSO, are added to the wells in 1 μl volume at the following concentrations: 50, 40, 30, 20, and 10 μg/ml in triplicate. […]\nAfter 72 hours of incubation, cells are stained with 0.5 ml of Crystal Violet stain (0.5% in 25% methanol) in each well. […] Following transfer of 100 μl from each well to a 96-well plate, plates are read at OD490 on a Molecular Devices SpectraMax Plus Spectrophotometer Average OD490 values are computed using SOFTmax Pro Software (Molecular Devices) and IC50 values are determined by linear regression analysis using Prism version 3.02 (Graph Pad Software, San Diego)."}}, "data": [{"smiles": "C=CCC1(CC=C)C(=O)SC(C)(CCCCCCCC)C1=O", "note": "(racemic) [Compound 4, 3,3-Diallyl-5-methyl-5-octyl-thiophene-2,4-dione]", "values": [{"measurement": "Ecoli/MH (MIC)", "setting": "[1]; Mueller Hinton Broth", "value": "Neg"}, {"measurement": "Ecoli/Tsoy", "setting": "[1]; Trypticase Soy Broth", "value": "Neg"}, {"measurement": "MIC", "setting": "[2]; Enterococcus faecalis, ATCC29212, Trypticase Soy Broth, read-out: EF/Tsoy (MIC)", "value": 169, "unit": "µg/mL"}, {"measurement": "EF/MH (MIC)", "setting": "[2]; Mueller Hinton Broth", "value": "Neg"}, {"measurement": "14C (IC50)", "setting": "[3]", "value": "Neg"}, {"measurement": "IC50", "setting": "[4]", "value": "15 ± 7.7", "unit": "µg/mL"}]}]}
